Measurements as given in patent US20230210881A1, “NICOTINAMIDE MONONUCLEOTIDE DERIVATIVES FOR THE TREATMENT OF BACTERIAL INFECTIONS” (NUVAMID SA, priority 2020, published 2023).

Assays:
Escherichia coli = experiment: Non-lethal model of Escherichia coli induced pneumonia, bacterial culture in the spleen; assay type: in vivo, BALB/c mice; settings: for bacteria in the spleen: pre-treatment 185 mg/kg
Experimental: The purpose of this study is to evaluate the effect of pre-treatment, with an NAD precursor, on the spread of bacterial infection to the spleen in a mouse model of non-lethal Escherichia coli (E. coli) induced pneumonia.
The administration of the compound at 185 mg/kg and the vehicle (physiological buffer) is performed intraperitoneally and/or intratracheally.
The compound of formula I-A (white powder) is dissolved in the vehicle. The solution is used at room temperature for a maximum of 1 day and freshly prepared for each new experiment.
Immediately before use, the E. coli culture was washed twice with 0.9% NaCl. After the second wash, the pellet was re-suspended in sterile saline and the dose calibrated by nephelometry.
Female BALB/c mice (20-24 g) were then inoculated using intratracheal insertion of a gavage needle (24 G) for injection of 75 μL of the bacterial suspension.
The compound of formula I-A and the vehicle are administered to the animals intraperitoneally and/or intratracheally. The injection of the compound of formula I-A is performed 24 hours prior to the infection with Escherichia coli. Simulated animals are given a physiological buffer by intraperitoneal administration.
At 24 hours, 48 hours, and 72 hours postoperatively, spleens from sacrificed animals were weighed and homogenized in 1 mL of saline. These solutions were then used for quantitative agar gel cultures during 24 hours of incubation at 37° C. Viable bacterial colony counts are expressed as Log 10 CFU per gram of organ.

[1] = test system: caecal ligation and puncture (LPC) induced sepsis; experiment: Caecal ligation and puncture (LPC) induced sepsis model; assay type: in vivo, mice; settings: for survival rate: compared with the control group; for Number of surviving mice: 185 mg/kg i.p. once daily; for bacterial load in the blood (bacterial DNA 16S by RT-PCR): 24 hours after LPC; for bacterial load in the blood (bacterial DNA 16S by RT-PCR) / clinical score (murine sepsis score): compared to the control group; for clinical score (murine sepsis score): after LPC at 24, 48, 72 and 96 hours; for temperature after LPC: rectal temperature, 24 hours after surgery
Experimental: The purpose of this study is to evaluate the effect of administration of compounds according to the invention (I-A and I-B) on the survival rate of mice in a caecal ligation and puncture (LPC) induced sepsis model.
The study consists of creating a sepsis model in mice by caecal ligation and puncture (LPC) and evaluating the impact of compounds I-A and I-B on the development of sepsis for 4 days.
The test compounds are administered at 185 mg/kg, intraperitoneally, immediately after the LPC procedure, and then once daily at 24, 48, and 72 hours. The remaining mice are euthanized at 96 hours post-LPC. Vehicle (physiological buffer) is used as a control and administered under the same conditions.
Mice are anesthetized with 3% Vetoflurane. A laparotomy is performed to exteriorize the caecum. For induction of medium grade sepsis, the caecum is ligated between the distal pole and the base of the caecum. A through puncture with a 21-gauge needle is performed. A small amount of excreta is extruded from the mesenteric and antimesenteric penetration holes to ensure patency. The caecum is repositioned over the abdominal cavity. The peritoneum, fascia, abdominal musculature and then the skin are closed by applying simple sutures. The animals are resuscitated by injecting pre-warmed normal saline (37° C.; 5 ml per 100 g body weight) subcutaneously.
Administration of Compound I-A at 185 mg/kg, Compound I-B at 185 mg/kg and vehicle (physiological buffer) is performed intraperitoneally immediately after LPC surgery and then once daily at 24, 48 and 72 hours post LPC.
Survival is assessed every 12 hours for the first two days, then once a day until euthanasia.
Rectal temperature is checked every 2 to 4 hours for the first day, then twice for the second day.
These two parameters are monitored once a day.
The clinical score is defined according to the criteria defined in Table 3:
24 hours after surgery, mice were anesthetized with Vetoflurane and blood was collected from the retroorbital sinus to quantify the bacterial load. Bacterial DNA (16S) is extracted and quantified by RT-PCR.

[2] = test system: Pseudomonas aeruginosa PAO1; experiment: Mouse model of respiratory tract infection induced by Pseudomonas aeruginosa PAO1, bacterial load; assay type: in vivo, mice; settings: day 5 post infection, I-A 185 mg/kg i.p., ciprofloxacin 2 mg/kg i.p., once a day
Experimental: The vehicle (physiological buffer) is used as a control and is administered under the same conditions.
In each group, the bacterial load in the blood and lungs is assessed on day 5 post infection.
Leukopenia is induced by intraperitoneal injections of cyclophosphamide 4 days and 1 day before infection, with doses of 150 mg/kg and 100 mg/kg, respectively. P. aeruginosa PAO1 was obtained from ATCC. One vial is thawed and diluted in sterile PBS on the day of infection.
Bacterial load is assessed in blood and lungs on day 5. Quantitative cultures on agar gel are performed during 24 hours of incubation at 37° C. Viable bacterial colony counts are expressed as Log 10 CFU per mL of blood or per gram of organ.

Row | SMILES | percentage of animals with bacteria in the spleen (Escherichia coli; after 24 hours, compared to the control group) | percentage of positive bacterial culture in the spleen (Escherichia coli; pre-treatment 185 mg/kg 24 hours prior to infection, intraperitoneal administration, compared to untreated mice (control)) | bacteria in the spleen (Escherichia coli; 48 h after intraperitoneal administration) | bacteria in the spleen (Escherichia coli; 72 h after intratracheal administration) | spread of bacteria from the lungs to the spleen (Escherichia coli; pre-treatment, intraperitoneal and/or intratracheal administration) | survival rate ([1]; 185 mg/kg i.p.) | Number of surviving mice ([1]; 24 h after LPC) | bacterial load in the blood (bacterial DNA 16S by RT-PCR) [1] | Number of surviving mice ([1]; 48 h after LPC) | Number of surviving mice ([1]; 72 h after LPC) | Number of surviving mice ([1]; 96 h after LPC) | clinical score (murine sepsis score) [1] | temperature after LPC ([1]; 185 mg/kg i.p.) | reduction of blood bacterial load compared to the vehicle group [2] | pulmonary bacterial load ([2]; compared with the vehicle group) | weight loss ([1]; after LPC over 24-96 hours, 185 mg/kg i.p.)
1 | NC(=O)c1ccc[n+]([C@@H]2O[C@H](COP(=O)([O-])O)[C@@H](O)[C@H]2O)c1 [Compound I-A] | greatly reduced | reduced the percentage of positive cultures in the spleen | no bacteria were found in the spleen | no bacteria were found in the spleen | prevented the spread of bacteria from the lungs to the spleen | improved | 12/12 | significantly decreased | 11/12 | 10/12 | 9/12 | very significantly improved | regain their basal temperature | approximately 2 log | antibacterial effect | –
2 | NC(=O)c1ccc[n+]([C@H]2O[C@H](COP(=O)([O-])O)[C@@H](O)[C@H]2O)c1 [Compound I-B] | – | – | – | – | – | improved | 12/12 | significantly decreased | 9/12 | 8/12 | 6/12 | very significantly improved | regain their basal temperature | – | – | the weight loss is less
